Results as given in patent US20080311126A1, “Antisense Oligonucleotides Directed to Ribonucleotide Reducatase R2 and Uses Thereof in Combination Therapies for the Treatment of Cancer” (Genesense Technologies, Inc, priority 2004, published 2008).
Entries after “also recorded” stand apart in the source; their conditions may differ.

Tests used:
Assay type in all cases: in vivo
[1] = test system: A498 human renal carcinoma; test: A498 renal tumour xenograft in SCID mice, SEQ ID NO:1 and interferon alpha
Method: (§1) Cell line: Human renal carcinoma cell line (A498) was grown as monolayer culture in Minimum essential medium (α-MEM) supplemented with 10% fetal bovine serum (FBS), 0.1 mM non-essential amino acid, 1.0 mM sodium pyruvate, 100 U/ml penicillin, 100 μg/ml streptomycin and 0.25 μg/ml amphotericin B and 2 mM L-alanyl-1-glutamine at 37° C. in an atmosphere of 5% CO2 in air. The tumour cells were routinely subcultured twice weekly by trypsin-EDTA treatment. The cells were harvested from subconfluent logarithmically growing culture by treatment with trypsin-EDTA and counted for tumour inoculation.
(§2) Tumour Inoculation: An acclimation period of at least 7 days was allowed between animal receipt and commencement of tumour inoculation. When the female SCID mice were 6-7 weeks of age (20-25 g), each mouse was subcutaneously injected with 9×10^6 A498 human renal carcinoma cells in 0.1 ml of PBS at the right flank of the mice to induce tumour growth.
Dose Preparation and Treatment: The dose for SEQ ID NO:1 was formulated using the following procedure. From a concentrated stock solution (usually prepared in ddH2O at a concentration of 50 mg/ml and kept at −80° C.), SEQ ID NO:1 was diluted with saline to achieve a final target concentration of 1 or 2.5 mg/ml on the first day of dosing. Enough SEQ ID NO:1 was diluted so that the compound could be administered by bolus infusion into the tail vein every other day for the duration of the experiment. Recombinant interferon alfa-2b (ntron A™) was employed according to the dose and treatment schedules below. The treatments were started 20 days after the tumour cell inoculation when the tumour size reached an approximate volume of 200 mm^3. Each treatment group contained 10 tumour-bearing mice. Routes of administration are as follows: intravenous (i.v.) and intratumoural (i.t.).
• 1. Saline treated group-1: saline 0.1 ml/mouse/48 hours, i.v., n=10 • 2. Saline treated group-2: saline 0.05 ml/mouse/5 days/week, i.t., n=10 • 3. SEQ ID NO:1 treated group: 1 mg/kg/48 hours in 0.1 ml saline, i.v. n=10 • 4. SEQ ID NO:1 treated group: 2.5 mg/kg/48 hours in 0.1 ml saline, i.v., n=10 • 5. […]
Treatment started from day 20 after inoculation of human renal tumour cells. […]
Endpoints: The effects of SEQ ID NO:1 and Intron A on tumour growth was determined. Tumour sizes were measured every week from day 20 after the tumour cell inoculation in two dimensions using a caliper, and the volume was expressed in mm^3 using the formula: V=0.5 a×b^2, where a and b are the long and short diameters of the tumour, respectively. Mean tumour volumes calculated from each measurement were then plotted in a standard graph to compare the anti-tumour efficacy to that of controls. A day after the last treatment, tumours were excised from the animals and their weights were measured. […]

[2] = test system: Caki-1 human renal carcinoma; test: Caki-1 renal tumour xenograft in SCID mice, SEQ ID NO:1 and interferon alpha
Method: as §1, with “Line:” for “line:”, “(Caki-1)” for “(A498)”, “(FEBS),” for “(FBS),”, “L-alanyl-L-glutamine” for “L-alanyl-1-glutamine”
as §2, with “subcutaneously (s.c.)” for “subcutaneously”, “5×10^6 Caki-1” for “9×10^6 A498”
Dose-Preparation and Treatment: The dose for SEQ ID NO:1 was formulated using the following procedure. From a concentrated stock solution (usually prepared in ddH2O at a concentration of 50 mg/ml and kept at −80° C.), SEQ ID NO:1 was diluted with saline to achieve a final target concentration of 1 or 2.5 mg/ml on the first day of dosing. Enough SEQ ID NO:1 was diluted so that the compound could be administered by bolus infusion into the tail vein every other day for the duration of the experiment. Recombinant interferon alfa-2b (Intron A™) was utilized according to the dose and treatment schedules below. The treatments were started 7 days after the tumour cell inoculation when the tumour size reached an approximate volume of 125 mm^3. Each treatment group contained 10 tumour-bearing mice. Routes of administration are indicated as follows: intravenous (i.v.) and intratumoural (i:t.).
Groups and Treatments: The following treatment groups were evaluated: • 1. Saline treated group-1: saline 0.1 ml/mouse/48 hours, i.v., n=10 • 2. Saline treated group-2: saline 0.05 ml/mouse/5 days/week, i.t., n=10 • 3. […] Intron A 10^3 unit/5 days/week treated group: 10^3 unit Intron A in 0.05 ml saline, i.t., n=10 • 6. Intron A 10^5 unit/5 days/week treated group: 10^5 unit Intron A in 0.05 ml saline, i.t., n=10 • 7. SEQ ID NO:1 1 mg/kg Plus Intron A 10^3 treated group: “3+5”, n=10 • 8. SEQ ID NO:1 1 mg kg Plus Intron A 10^5 treated group: “3+6”, n=10 • 9. SEQ ID NO:1 2.5 mg/kg Plus Intron A […], n=10 • 10. SEQ ID NO:1 2.5 mg/kg Plus Intron A 10^5 treated group: “4+6”, n=10
Mice received 25 treatments with SEQ ID NO:1 and 30 treatments with Intron A. The dosing schedule for Intron A was: treatment with Intron A for 3 consecutive weeks, 1 week off, and treatment with Intron A again for another 3 consecutive weeks. The dosing schedule for SEQ ID NO:1 was treatment with SEQ ID NO:1 every other day for the duration of the experiment.
Endpoints: The effects of SEQ ID NO:1 and Intron A on tumour growth were determined. Tumour sizes were measured every week from day 7 after the tumour cell inoculation in two dimensions using a caliper, and the volume was expressed in mm^3 using the formula: V=0.5 a×b^2, where a and b are the long and short diameters of the tumour, respectively. Mean tumour volumes calculated from each measurement were then plotted in a standard graph to compare the anti-tumour efficacy to that of controls. A day after the last treatment, tumours were excised from the animals and their weights were measured.
A second independent in vivo study was conducted as described in Example 1 utilizing SCID mice (female, 6 weeks old) and Caki-1 (human renal carcinoma cell line) to test the efficacy of SEQ ID NO:1 in combination with IFN alpha Briefly, 5×10^6 Caki-1 human renal carcinoma cells in 0.1 ml of PBS were injected subcutaneously at the right flank of the mice to induce tumour growth. Treatments started on the seventh day after tumour cell injection. […]

[3] = test system: Hela S3 human cervix epitheloid carcinoma cells; test: Hela S3 hydroxyurea resistant cervix carcinoma xenograft in SCID mice
Method: Hela S3 human cervix epitheloid carcinoma cells (5×10^5 cells in 100 μl of PBS) were subcutaneously injected into the right flank of 6-7 weeks old female SCID mice. Hela S3 is a hydroxyurea resistant cell line. After the size of tumour reached an approximate volume of 100 mm^3, 3 days post tumour cell injection, SEQ ID NO:1 was administered by bolus infusion into the tail vein every other day at 10 mg/kg 6 times. Control animals received saline alone for the same period. Antitumour effect of SEQ ID NO:1 was further compared to that of Hydroxyurea or Cisplatin alone or in combination. Hydroxyurea was administered intraperitoneally every day at a dose of 250 mg/kg for 10 days. Cisplatin was administered intravenously once a week for three weeks at a dose of 4 mg/kg. Antitumour activities were estimated by the inhibition of tumour volume, which was measured with caliper. Each point represents mean tumour volume calculated from 10 animals per experimental group. […] As expected, treatment with Hydroxyurea during the same period was ineffective against Hydroxyurea-resistant tumour.

[4] = test system: MDA-MB-231 human breast cancer cells; test: MDA-MB-231 breast tumour xenograft in CD-1 nude mice
Method: MDA-MB-231 human breast cancer cells (1×10^7 cells in 100 μl of PBS) were subcutaneously injected into the right flank of 6-7 weeks old female CD-1 nude mice. After the size of tumour reached an approximate volume of 100 mm^3, 5 days post tumour cell injection, SEQ ID NO:1, or the scrambled control oligonucleotide (SEQ ID NO:3) were administered by bolus infusion into the tail vein every other day at 10 mg/kg. Control animals received saline alone for the same period. Antitumour effect of SEQ ID NO:1 was further compared to that of taxol or doxorubicin alone or in combination. Taxol was administered intravenously once a week at a dose of 10 mg/kg for three (FIG. 17A) or four weeks (FIG. 17C). Doxorubicin was administered intravenously once a week at a dose of 5 mg/kg for first three weeks (FIG. 17A) or for two weeks (FIG. 17C). All treatments were stopped at day 33 (FIG. 17A) or at day 26 (FIG. 17C), respectively. A day after the last treatment, tumours were excised from the animals and their weights were measured. […] In FIG. 17C, antitumour activities were estimated by the inhibition of tumour volume, which was measured with calipers. Each point represents mean tumour volume calculated from 10 animals per experimental group.

[5] = test system: Caki-1 human renal cancer cells; test: Caki-1 renal tumour xenograft in SCID mice, SEQ ID NO:1 and chemotherapeutics; settings: Caki (renal); Mouse CD-1
Method: Caki-1 human renal cancer cells (1×10^7 cells in […] of PBS) were subcutanteously injected into the right flank of 6-7 weeks old female SCID mice. After the size of tumour reached an approximate volume of 200 mm^3, 7 days post tumour cell injection, SEQ ID NO:1 was administered by bolus infusion into the tail vein every other day at 10 mg/kg. Control animals received saline alone for the same period. The antitumour effect of SEQ ID NO:1 was further compared to that of two chemotherapeutic agents: 5-FU and vinblastine. 5-FU was administered intraperitoneally at days 7-13, 21-27 and 35-36 with a dose of 13 mg/kg/day, while vinblastin was administered intraperitoneally at days 7, 14, 21, 28 and 35 at a dose of 0.6 mg/kg/week. Antitumour effects of each of these compounds were further compared to those of SEQ ID NO:1 in combination with 5-FU or with vinblastin. The two chemotherapeutic agents were applied as described above, one hour after the treatments with SEQ ID NO:1 when combination treatments occurred on the same day. All treatments were stopped at day 36. A day after the last treatment, tumours were excised from the animals and their weights were measured.

[6] = Example 4, oligonucleotide 2.5 mg/kg every 2 days i.v., Intron A 10^5 unit 5 days/week i.t.

Recombinant interferon alfa-2b [Intron A]
anti-tumour efficacy (tumour volume, tumour weight) ([1]; Example 6, SEQ ID NO:1 1 or 2.5 mg/kg/48 hours i.v., Intron A 10^3 or 10^5 unit 5 days/week i.t.): significant anti-tumour efficacy
anti-tumour efficacy (tumour volume, tumour weight) ([1]; Example 7, SEQ ID NO:1 2.5 mg/kg/2ds i.v., 10000 units Intron A x5/week for 2 weeks i.t.): significant anti-tumour efficacy
anti-tumour efficacy (tumour volume, tumour weight) ([2]; Example 2, SEQ ID NO:1 1 or 2.5 mg/kg/48 hours i.v., Intron A 10^3 or 10^5 unit 5 days/week i.t.): significant anti-tumour efficacy
anti-tumour efficacy (tumour volume, tumour weight) ([2]; Example 3, SEQ ID NO:1 2.5 or 5 mg/kg every 2 days i.v., Intron 10^5 unit 5 days/week i.t.): significant anti-tumour efficacy
anti-tumour efficacy (tumour volume, tumour weight) [2, 6]: significant anti-tumour efficacy
efficacy in combination with SEQ ID NO:1, subcutaneous versus intratumoural ([2]; Example 5, SEQ ID NO:1 2.5 mg/kg/2 days i.v. plus 100000 units Intron A x3/week s.c. or i.t.): equally effective

NC(=O)NO [Hydroxyurea (HU), Hydroxyurea, reference compound]
Tumour weight as % of saline control ([3]; Hela S3 (cervix), hydroxyurea resistance, SCID): 92%
antitumour effect (tumour volume) ([3]; SEQ ID NO:1 10 mg/kg 6 times, Hydroxyurea 250 mg/kg i.p. 10 days, Cisplatin 4 mg/kg i.v. weekly): ineffective

ACGCACTCAGCTAGTGACAC (listed as DNA, chemistry not given here) [SEQ ID NO:3, reference compound]
effect on the efficacy of Intron A ([2]; Example 4, SEQ ID NO:3 2.5 mg/kg plus Intron A 10^5): did not improve the efficacy of Intron A
anti-tumour efficacy (tumour volume, tumour weight) [2, 6]: no efficacy as a monotherapy
antitumour effect (tumour weight, tumour volume) ([4]; oligonucleotide 10 mg/kg every other day i.v., taxol 10 mg/kg, doxorubicin 5 mg/kg i.v. once a week): no significant anti-tumour activity as a monotherapy; also recorded: does not cooperate with doxorubicin

COc1cccc2c1C(=O)c1c(O)c3c(c(O)c1C2=O)C[C@@](O)(C(=O)CO)C[C@@H]3O[C@H]1C[C@H](N)[C@H](O)[C@H](C)O1 [Doxorubicin]
Tumour weight as % of saline control ([4]; MDA-MB-231 (breast), Mouse CD-1): 41%

O=c1[nH]cc(F)c(=O)[nH]1 [5-FU, 5-fluorouracil, reference compound]
Tumour weight as % of saline control [5]: 52%
